For the compound `COc1cc(S(=O)(=O)c2ccccc2)ccc1[N+](=O)[O-]`, the melting point (usually the temperature of the solid-liquid transition) is 128 to 130 °C.

As to `CC(C)(C)c1ccc(-c2cc(Nc3ccc4[nH]ccc4c3)nnc2-c2ccccc2)cc1`, the melting point was 138 to 140 °C.

`OC(Cn1cncn1)(Cn1ncnc1S)c1ccc(F)cc1F` (stereo unspecified) had a melting point of 187 °C.

The compound `COc1ccc2oc(C(=O)OCC(C)(C)C(=O)C(C)(C)C)cc2c1` had a melting point of 81.5 to 82.5 °C.

Compound `CC(=O)NCCC1Cc2c(C)c(OCc3ccccc3)c(C)c(C)c2O1` (racemic) gave a melting point of 138 to 139 °C.

With `CC(C)c1cc(Oc2ccccc2)cc(C(C)C)c1N`, the melting point lay in the range of 71 to 72 °C.

With `CCCCNC(=O)Nc1ccc(NC)cc1C(=O)NCC1CCN(C(c2ccccc2)c2ccccc2)CC1`, the melting point lay within 203 to 204 °C.

For the compound `Cc1ccc(N2C(=O)C(O)=C(C(=O)c3ccc(C(C)C)cc3)C2c2ccc(N(C)C)cc2)nn1` (stereo unspecified), the melting point is 283 to 286 °C.

`Cc1nc2ccc(S(=O)(=O)n3c(CCCC(=O)O)cc4cc(C(F)(F)F)ccc43)cc2o1` had a melting point of 214 to 220 °C.

On to `CN(C(=O)Oc1ccc([N+](=O)[O-])cc1)c1ccc(-c2ncn(-c3ccc(OC(F)(F)F)cc3)n2)cc1`, for which the melting point fell in the range of 145 to 147 °C.

Turning to `CCOC(=O)Cc1csc(NC(=O)C(N)Cc2cccs2)n1` (stereo unspecified), the melting point fell in the range of 98 to 102 °C.

Compound `O=c1oc2c(O)cccc2c(O)c1-c1ccccc1` showed a melting point of 220 °C.

In the case of `COc1ccc(NC(=O)c2coc3c2C(=O)CCCC3)c(F)c1`, the melting point lay within 168 to 172 °C.

As to `COc1ccccc1NC(=O)NC1CC(N)(C(=O)O)C2C(C(=O)O)C12` (stereo unspecified), the melting point was > 250 °C.

Take `CCOC(=O)c1ccc(N(Cc2ccc(Cl)cc2)C(=O)OCC)cc1`: the melting point was in the range of 43 to 46 °C.

`CC(C)Cn1c(CNC(=O)OC(C)(C)C)c(-c2ccc(F)cc2)c2cc(/C=C/C(=O)O)ccc2c1=O` registered a melting point of 201 to 202 °C.

`C=C(C)Cn1c(=O)n(C)c(=O)c2c(Sc3ccccn3)n(Cc3cccc4ccccc34)nc21` gave a melting point of 118 to 120 °C.

The compound `CCCNC(=O)C(C)Cc1ccc2cccc(Cc3ccc(C(=O)OC)cc3OC)c2c1` (stereo unspecified) yielded a melting point of 130 °C.

`CCOP(=O)(COCC(CO)On1cnc2c(=O)[nH]c(N)nc21)OCC` (stereo unspecified) showed a melting point of 238 to 240 °C.

In turn, `O=c1ccn(-c2cccc(C(F)(F)F)c2)nc1-c1cn(C(c2ccccc2)(c2ccccc2)c2ccccc2)nc1-c1ccccc1` gave a melting point of 216 to 218 °C.

As for `Cn1nc(-c2c(F)cccc2Cl)nc1-c1sc(Br)c(Cl)c1Cl`, the melting point lay within 178 to 180 °C.

Regarding `COc1cccc2c1CNC2`, the melting point was in the range of 58.5 to 60 °C.

Consider `CC(Cc1ccc(OCc2ccccc2)cc1)NCC(O)c1cc2ccccc2o1` (stereo unspecified), for which the melting point was 111 to 122 °C.

`Cc1cc(CO)c2cccc(OCc3ccccc3)c2n1`: the melting point lay within 137 to 141 °C.

The compound `Cc1cc(C)nc(NC(=O)NS(=O)(=O)c2ccccc2OS(=O)(=O)N(C)C)n1` returned a melting point of 195 to 196 °C.

`CCOc1cccnc1C(=O)NCCNC(=O)OC(C)(C)C` registered a melting point of 125 to 126 °C.

As to `CCCc1nc2c(N)nc3cc(OCCCNC(=O)c4cccnc4)ccc3c2n1CC(C)C`, the melting point lay in the range of 172 to 174 °C.

Take `CC1(C)CC(=O)c2c(SCCO)sc(-c3cc[nH]n3)c2C1`: the melting point fell in the range of 182 to 185 °C.

In turn, `COc1cc(C=O)cc(OC)c1NC=O` yielded a melting point of 159 to 160 °C.

`CCSCCCNc1c(S(=O)(=O)C(F)(F)F)c(C#N)nn1-c1c(Cl)cc(C(F)(F)F)cc1Cl` showed a melting point of 80 °C.

As for `COc1ccc(-c2cc(C(F)(F)F)n3ncc(C(=O)Nc4cccc(S(=O)(=O)N5CCOCC5)c4)c3n2)cc1`, the melting point was determined as 203 °C.

`NS(=O)(=O)Oc1cccc(Cl)c1Cl` registered a melting point of 116 to 117 °C.

With `CCOC(=O)CC(=O)c1cc(C#N)ccc1F`, the melting point fell in the range of 55 to 60 °C.

Turning to `COCCCN1C(=O)COc2ccc(Br)cc21`, the melting point was 193 to 195 °C.

Turning to `COc1cc(CCl)ccc1OCc1nc(-c2cccc([N+](=O)[O-])c2)oc1C`, the melting point is 166 to 168 °C.

For `CCc1noc(-c2cn(-c3ccccc3OCCc3ccccc3)cn2)n1`, the melting point is 61 °C.

The compound `COc1ccccc1-c1ccc(C(=O)O)cc1` returned a melting point of 250 to 253 °C.

Compound `Nc1nc(-c2cc(Cl)ccc2Cl)nc(N2CCCC(O)C2)n1` (stereo unspecified) yielded a melting point of 178 to 180 °C.

Consider `COC(=O)C1CCc2cc(C)c(C)cc2C1=O` (stereo unspecified), for which the melting point was 80 to 81 °C.

`COc1cc([N+](=O)[O-])c2ncccc2c1OCc1ccc(Cl)cc1` yielded a melting point of 115 to 116 °C.

The compound `ONC1CCn2c1cc1ccccc12` (stereo unspecified) yielded a melting point of 159 to 161 °C.

The compound `CC(=O)NCC=C1CCc2ccc3nc(CCCCc4ccccc4)oc3c21` came in with a melting point of 113 to 115 °C.

On to `CCCCOC(=O)c1c(-c2cnccn2)ssc1=S`, for which the melting point came out at 127 °C.

`CC1CC(=O)NN=C1c1ccc(Cl)c([N+](=O)[O-])c1` (stereo unspecified) returned a melting point of 186 to 188 °C.

`Cc1cccc(N2CCCC2=O)c1CNc1cccn2c(C)c(C)nc12`: the melting point is 138 to 141 °C.

On to `CN(C(=O)N[C@@H](Cc1ccc(Nc2nccc3cnccc23)cc1)C(=O)O)c1ccccc1Cc1ccccc1`, for which the melting point was 141 °C.

Regarding `CC(=O)NCc1ccc(C(=O)CCCN2CCC(c3noc4cc(F)ccc34)CC2)s1`, the melting point lay in the range of 140 to 142 °C.

The compound `C[C@@H]1OC(=O)[C@H]2C[C@H]3CCCC[C@@H]3[C@@H](O)[C@@H]12` showed a melting point of 195 to 196 °C.

Compound `Cc1ccc(C(C)C)c(OCCN(C)Cc2c(C)c(O)c(C)c(C)c2OCCO)c1` returned a melting point of 115 to 118 °C.

`COc1ccc2ncnc(N3CCc4ccc(Cl)cc43)c2c1` displayed a melting point of 243 °C.

In turn, `Cc1nn([N+](=O)[O-])cc1-c1ncc([N+](=O)[O-])n1C` had a melting point of 148 °C.

In the case of `CSc1nc2sccc2c(=O)[nH]1`, the melting point lay in the range of 232 to 235 °C.

With `CCCCC(=O)c1ccc(C(=O)Nc2ccc3cc(CN4CCCC4)cnc3c2C)cc1`, the melting point worked out at 180 °C.

`CC(C)(C)OC(=O)C=Cc1ccc(-c2ccc3ncnc(Nc4ccc(OCc5cccc(F)c5)c(Cl)c4)c3c2)cc1` gave a melting point of 212 °C.

`CCCOc1ccccc1C(=O)Nc1ncccc1C(N)=O` yielded a melting point of 181 to 184 °C.

`CCN(CC)c1ccc(C(=O)Cn2ncc(-c3ccc(S(C)(=O)=O)cc3)c(-c3ccc(F)cc3)c2=O)cc1` showed a melting point of 105 to 108 °C.

As to `C[C@@]1(C=O)S[C@@H]2CC(=O)N2[C@H]1C(=O)OC(c1ccccc1)c1ccccc1`, the melting point fell in the range of 112 to 113 °C.

For `CC(=O)N(C)c1cccc(-c2ccnc3c(C(=O)c4ccccc4)cnn23)c1`, the melting point lay in the range of 162 to 164 °C.

`CC(C)(C)n1ncc(C(=O)O)c1Cl`: the melting point is 132 to 134 °C.

`O=C(O)CC1C=CC=CC1=NOC(=O)C(Cl)Cl` (stereo unspecified) displayed a melting point of 115 °C.

Take `O=S(CCCCCOc1ccc(C2=C(c3ccccc3)CCCc3cc(O)ccc32)cc1)Cc1cccs1` (stereo unspecified): the melting point lay within 174 to 177 °C.

For the compound `CCCCN(CCCC)CCCNC(=O)c1ccc2oc3ccc(C(=O)NCCCN(CCCC)CCCC)cc3c(=O)c2c1`, the melting point lay in the range of 89 to 92 °C.

For `Cc1nn(-c2ccccn2)cc1COc1ccc(COc2ncccc2C#N)cc1`, the melting point was 108 to 109 °C.

As to `O=C(O)c1cc([N+](=O)[O-])c(Cl)c(S(=O)(=O)Cl)c1`, the melting point was 189 to 190 °C.

Turning to `Nc1nnc(-c2ccc3occ(-c4cc(F)ccc4F)c3c2)o1`, the melting point is 245 to 246 °C.

`Cc1nc2n(c(=O)c1CCN1CCC(c3n[nH]c4cc(F)ccc34)CC1)CCS2` registered a melting point of 208 °C.

In the case of `CCCn1cc(Cc2ccc(C(=O)O)cc2OC)c2cc(CC3CCN(CC)C3=O)ccc21` (stereo unspecified), the melting point lay within 94 to 99 °C.

`O=S(=O)(NCc1ccnc2ccccc12)c1ccc(Cc2ccccc2)cc1` returned a melting point of 106 to 107 °C.

For `CCc1cc(C[C@H](NC(=O)c2c(Cl)cccc2Cl)C(=O)O)ccc1-c1ccccc1OC`, the melting point fell in the range of 105 to 107 °C.

`CC(C)(C)n1c(=O)n(-c2ccnc(NC(=O)NCc3ccccn3)c2)c2ccccc21` registered a melting point of 164 to 165 °C.

`COc1ccc(-c2c(Cl)c(CCl)nc3sc4c(c23)CCN(Cc2ccccc2)C4)cc1OC` came in with a melting point of 171 to 172 °C.

`N#Cc1c(N2CCN(C(=O)c3cccs3)CC2)c2cccnc2n(Cc2cccc(F)c2)c1=O` yielded a melting point of 231 °C.

In turn, `Cc1nsc(Br)c1S(=O)(=O)NC(C)(C)C` came in with a melting point of 118 to 123 °C.

`CN1CCCCc2cc(-c3cnc(N)nc3N)ccc21` had a melting point of 206 to 207 °C.

In the case of `O=Cc1cc([N+](=O)[O-])ccc1C1SCCCS1`, the melting point is 99 to 101 °C.

As to `CC(C)(C)c1cc(CCc2ccccc2NC(=O)NC(C)(C)c2ccc(Cl)c(Cl)c2)cc(C(C)(C)C)c1O`, the melting point is 203 to 205 °C.

In turn, `O=C1COCC2CCCN12` (stereo unspecified) registered a melting point of 63.5 to 66 °C.

`O=C(O)C1(c2ccco2)CC1` displayed a melting point of 113 to 114 °C.

Compound `CNC(=O)NS(=O)(=O)c1cccc2c1OS(=O)(=O)C(C)C2` (stereo unspecified) registered a melting point of 235 to 238 °C.

In turn, `COc1ccc(Oc2cccc(C)c2)c(NS(C)(=O)=O)c1` showed a melting point of 87 to 88 °C.

The compound `CCCCCCCCC(CO)CO` displayed a melting point of 48 to 51 °C.

Regarding `CCOc1nn(-c2cc(C(F)(F)F)ccn2)cc1CCCOc1ccc(CCC(=O)O)cc1OC`, the melting point fell in the range of 111 to 112 °C.

In turn, `CCCNC(=O)C(C)c1nc(CC)no1` (stereo unspecified) showed a melting point of 52 to 53 °C.

`Cc1c(O)cccc1C(=O)N[C@@H](Cc1ccccc1)[C@H](O)C(=O)N1CSC(C)(C)[C@H]1C(=O)N[C@H]1CCSc2ccccc21` showed a melting point of 125 to 127 °C.

`CCOC(C(N)=O)N(c1ccc(Cl)cc1Cc1c(F)cccc1F)S(=O)(=O)c1ccc(OC)c(OC)c1` (stereo unspecified): the melting point was found to be 154 °C.

`O=[N+]([O-])c1ccc2c(c1)OC(CO)CO2` (stereo unspecified) yielded a melting point of 132 to 135 °C.

The values above are taken from a melting point compilation (Tetko et al.; mined from patent text by program, amines drawn as free bases though some values may be those of a salt).
